The text below walks through data of patent publication EP2135864A1, “5-(4-methanesulfonyl-phenyl)-thiazole derivatives for the treatment of acute and chronic inflammatory diseases” (FAES FARMA, S.A., priority 2008, dated 2009).

This assay relates to TNF-alpha. The assay is described as follows: TNF-alpha production by PBMC from patients with rheumatoid arthritis, CBA. Conditions: 24 hours, mean ± standard error, n=7. The format is cell-based, human. The method, then: CBA protocol was followed according to the manufacturer's instructions. The election of microparticles was performed following the summary of Figure 1.
The acquisition on samples was performed with the BD FACS Array Bioanalyser System (FACSArray, Becton Dickinson, San José, CA, USA) and the analysis of the results was completed with the software FCAP Array (Becton Dickinson) in a PC computer.
Briefly, the experimental protocol consisted of a plate pre-washing out with Wash Buffer. After decantation, the mixture of capture microparticles was re-suspended in the vortex. Standards and samples were added in the adequate dilution. After permanent stirring incubation during 1 h, the PE detection reagent was added and incubated again during 2h at room temperature. After a washing-out, the acquisition was performed in the flow cytometer. Table 3. -Kit CBA Human Soluble Protein Multiplex Flex Set System.
In another experiment, PBMC (5 x 10^4 cells per well) from 7 patients with rheumatoid arthritis were cultured in duplicate in 200 µl of complete medium supplemented with the highest solvent (10^-6 M), and 10^-6 M, 10^-7 M and 10^-8 M compound 12 and in the presence and absence of either LPS (10 µg/ml), or anti-CD3 (12.5ng/ml) (Orthoclone OKT3, Ortho Pharmaceutical Corporation, Raritan NJ, USA) + anti-CD28 (1/3x10^5) (Clon 15E8, Menarini, Madrid, Spain), during 24 hours. Culture supernatants were frozen at -20°C and the concentration of TNF-alpha quantified by BD FACS Array Bioanalyser by using CBA Flex Set (Becton Dickinson), specific for determining the concentration of that cytokine, following the manufacturer instructions.

The structures appear in SMILES notation.

As to `Cc1nc(OC2CCCC2)c(-c2ccc(S(C)(=O)=O)cc2)s1` [compound 12, 4-cyclopentyloxy-5-(4-methylsulfonyl-phenyl)-2-methylthiazole], the “TNF-alpha production in PMBC from patients with rheumatoid arthritis” value was 383.75±75.00 (0.05) pg/ml (LPS (10µg/ml), 10^-6 M, vehicle 700.39±180.00, p 0.05); 626.57±150.00 (0.237) pg/ml (LPS (10µg/ml), 10^-7 M, vehicle 700.39±180.00, p 0.237); 683.40±120.00 (0.499) pg/ml (LPS (10µg/ml), 10^-8 M, vehicle 700.39±180.00, p 0.499); 532.07±80.00 (0.31) pg/ml (anti-CD3 (12.5 ng/ml) + anti-CD28 (1/3x10^5), 10^-6 M, vehicle 648.72±90.00, p 0.31); 568.47±97.00 (0.612) pg/ml (anti-CD3 (12.5 ng/ml) + anti-CD28 (1/3x10^5), 10^-7 M, vehicle 648.72±90.00, p 0.612); 695.81±79.00 (0.398) pg/ml (anti-CD3 (12.5 ng/ml) + anti-CD28 (1/3x10^5), 10^-8 M, vehicle 648.72±90.00, p 0.398). Further, the “TNF-alpha production in PMBC from patients with rheumatoid arthritis” value is, setting by setting: (medium, 10^-6 M, vehicle 100.64±40.00, p 0.735) 177.32±95.00 (0.735) pg/ml; (medium, 10^-7 M, vehicle 100.64±40.00, p 0.735) 191.33±80.00 (0.735) pg/ml; (medium, 10^-8 M, vehicle 100.64±40.00, p 0.735) 131.95±85.00 (0.735) pg/ml.
